Measured values: patent US9765035B2 (priority 2013, dated 2017)
Like-named read-outs stand apart in the source and are kept apart here.

Biological target: human PRMT6 (Homo sapiens, UniProt Q96LA8)
Assay: biochemical
Text: General Materials. S-adenosylmethionine (SAM), S-adenosylhomocysteine (SAH), bicine, Tween20, dimethylsulfoxide (DMSO), bovine skin gelatin (BSG), sodium butyrate and Tris(2-carboxyethyl)phosphine hydrochloride solution (TCEP) were purchased from Sigma-Aldrich at the highest level of purity possible. ^3H-SAM was purchase from American Radiolabeled Chemicals with a specific activity of 80 Ci/mmol. 384-well streptavidin Flashplates were purchased from PerkinElmer.
Substrates. Peptide representative of human histone H4 residues 36-50 was synthesized with an N-terminal linker-affinity tag motif and a C-terminal amide cap by 21st Century Biochemicals. The peptide was purified by high-performance liquid chromatography (HPLC) to greater than 95% purity and confirmed by liquid chromatography mass spectrometry (LC-MS). The sequence was Biot-Ahx-[…]-amide and contained a monomethylated lysine at position 44 (SEQ ID NO.:5).
Molecular Biology: Full-length human PRMT6 (NM_018137.2) transcript clone was amplified from an HEK 293 cDNA library, incorporating a flanking 5′ sequence encoding a FLAG tag ([…]) (SEQ ID NO.:6) fused directly to Ser 2 of PRMT6 and a 3′ sequence encoding a hexa His sequence (HHHHHH) (SEQ ID NO.: 17) fused directly to Asp 375. The amplified gene was subcloned into pFastBacMam (Viva Biotech).
Protein Expression. Recombinant baculovirus were generated according to Bac-to-Bac kit instructions (Life Technologies). […] Infections were carried out at 37° C. for 48 hours, harvested by centrifugation, and stored at −80° C. for purification.
Protein Purification. […] Column was washed with 20 mM imidazole in the same buffer and Flag-PRMT6-His was eluted with 150 mM imidazole. Pooled fractions were dialysed against buffer Ni-A and further purified by anti-flag M2 affinity chromatography. Flag-PRMT6-His was eluted with 200 ug/ml FLAG peptide in the same buffer. Pooled fractions were dialysed in 20 mM Tris, 150 mM NaCl, 10% glycerol and 5 mM β-mercaptoethanol, pH 7.8. The purity of recovered protein was 95%.
General Procedure for PRMT6 Enzyme Assays on Peptide Substrates. The assays were all performed in a buffer consisting of 20 mM Bicine (pH=7.6), 1 mM TCEP, 0.005% BSG, and 0.002% Tween 20, prepared on the day of use. Compounds in 100% DMSO (1 ul) were spotted into a polypropylene 384-well V-bottom plates (Greiner) using a Platemate Plus outfitted with a 384-channel head (Thermo Scientific). DMSO (1 ul) was added to Columns 11, 12, 23, 24, rows A-H for the maximum signal control and 1 ul of SAH, a known product and inhibitor of PRMT6, was added to columns 11, 12, 23, 24, rows I-P for the minimum signal control. A cocktail (40 ul) containing the PRMT6 enzyme was added by Multidrop Combi (Thermo-Fisher). The compounds were allowed to incubate with PRMT6 for 30 min at room temperature, then a cocktail (10 ul) containing SAM and peptide was added to initiate the reaction (final volume=51 ul). The final concentrations of the components were as follows: PRMT6 was 1 nM, ^3H-SAM was 200 nM, non-radiolabeled SAM was 250 nM, peptide was 75 nM, SAH in the minimum signal control wells was 1 mM, and the DMSO concentration was 2%. The assays were stopped by the addition of non-radiolabeled SAM (10 ul) to a final concentration of 400 uM, which dilutes the ^3H-SAM to a level where its incorporation into the peptide substrate is no longer detectable. 50 ul of the reaction in the 384-well polypropylene plate was then transferred to a 384-well Flashplate and the biotinylated peptides were allowed to bind to the streptavidin surface for at least 1 hour before being washed once with 0.1% Tween20 in a Biotek EL×405 plate washer. The plates were then read in a PerkinElmer TopCount plate reader to measure the quantity of ^3H-labeled peptide bound to the Flashplate surface, measured as disintegrations per minute (dpm) or alternatively, referred to as counts per minute (cpm). […]

[1] = biochemical evaluation, peptide substrate, read-out: PRMT6 IC50
[2] = single experiment or average of multiple experiments, read-out: PRMT6 biochemical evaluation (numerical)

Sequence of human PRMT6 (Q96LA8 with tags, fused parts or gaps): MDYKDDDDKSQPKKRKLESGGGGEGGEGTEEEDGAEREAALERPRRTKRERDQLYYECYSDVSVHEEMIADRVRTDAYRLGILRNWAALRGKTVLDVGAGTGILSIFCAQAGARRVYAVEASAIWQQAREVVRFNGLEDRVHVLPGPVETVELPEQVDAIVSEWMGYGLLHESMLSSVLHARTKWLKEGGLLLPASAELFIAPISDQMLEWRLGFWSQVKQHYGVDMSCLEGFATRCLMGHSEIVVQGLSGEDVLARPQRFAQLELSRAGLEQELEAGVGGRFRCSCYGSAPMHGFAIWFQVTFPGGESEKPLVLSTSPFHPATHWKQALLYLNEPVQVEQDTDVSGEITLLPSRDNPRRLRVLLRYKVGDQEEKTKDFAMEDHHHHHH

Row | IC50 [1] [µM] | IC50 [2] [µM] | Structure (SMILES) | IC50 [µM] | IC50 (PRMT6 biochemical evaluation (numerical), single experiment or average of multiple experiments) [µM]
1 | 1.01 to 3 | 0.145 | CNCCN(C)Cc1n[nH]c2cccc(OCCCC(O)CO)c12 (stereo not shown) [Compound 41, 5-((3-((methyl(2-(methylamino)ethyl)amino)methyl)-1H-indazol-4-yl)oxy)pentane-1,2-diol] |  | 
2 | < 0.1 | 0.0374 | CNCCN(C)Cc1n[nH]c2ccc(OCc3ccn(C)n3)cc12 [Compound 20] |  | 
3 | 0.101 to 1 | 0.243 | CNCCN(C)Cc1n[nH]c2ccc(Oc3ccccc3C)cc12 [Compound 60] |  | 
4 | 1.01 to 3 | 6.02 | CNCCN(C)Cc1n[nH]c2ccc(OCC3CCCC3)cc12 [Compound 52] |  | 
5 | 1.01 to 3 | 2.55 | CNCCN(C)Cc1c2cc(OCc3ccc(C#N)cc3)ccc2nn1C1CCOCC1 [Compound 53] |  | 
6 | < 0.1 | 0.00909 | CNCCN(C)Cc1n[nH]c2ccc(OCc3cccc(C(C)(C)C)c3)cc12 [Compound 74] |  | 
7 | < 0.1 | 0.0127 | CNCCN(C)Cc1n[nH]c2ccc(OCc3cccc(C(F)(F)F)c3)cc12 [Compound 72] |  | 
8 | 0.101 to 1 | 0.479 | CNCCN(C)Cc1n[nH]c2ccc(Oc3ccc(Cl)cc3)cc12 [Compound 57] |  | 
9 | < 0.1 | 0.00949 | CNCCN(C)Cc1n[nH]c2ccc(OCc3cccc(C(C)=O)c3)cc12 [Compound 73] |  | 
10 |  |  | CNCCN(C)Cc1n[nH]c2ccc(Oc3ccc(OC)cc3)cc12 [Compound 59] | 0.101 to 1 | 0.306
11 | 1.01 to 3 | > 10 | CNCCN(C)Cc1n[nH]c2ccc(OCC3CCN(C(C)=O)CC3)cc12 [Compound 51] |  | 
12 | 0.101 to 1 | 0.131 | CNCCN(C)Cc1n[nH]c2ccc(Oc3ccccc3Cl)cc12 [Compound 30] |  | 
13 | < 0.1 | 0.0581 | CNCCN(C)Cc1n[nH]c2ccc(C3=CCOCC3)cc12 [Compound 45] |  | 
14 | 0.101 to 1 | 0.178 | CNCCN(C)Cc1n[nH]c2ccc(OC3CCOCC3)cc12 [Compound 29, N^1,N^2-dimethyl-N^1-((5-((tetrahydro-2H-pyran-4-yl)oxy)-1H-indazol-3-yl)methyl)ethane-1,2-diamine] |  | 
15 | < 0.1 | 0.0151 | CNCCN(C)Cc1n[nH]c2ccc(OCc3cccc(NC(C)=O)c3)cc12 [Compound 70] |  | 
16 | < 0.1 | 0.072 | CNCCN(C)Cc1n[nH]c2ccc(C3CCOCC3)cc12 [Compound 44, N^1,N^2-dimethyl-N^1-((5-(tetrahydro-2H-pyran-4-yl)-1H-indazol-3-yl)methyl)ethane-1,2-diamine] |  | 
17 | 0.101 to 1 | 0.694 | CNCCN(C)Cc1n[nH]c2ccc(Oc3ccc(C(F)(F)F)cc3)cc12 [Compound 39] |  | 
18 | 0.101 to 1 | 0.0537 | CNCCN(C)Cc1n[nH]c2ccc(Oc3cccc(Cl)c3)cc12 [Compound 27, N^1-((5-(3-chlorophenoxy)-1H-indazol-3-yl)methyl)-N^1,N^2-dimethylethane-1,2-diamine] |  | 
19 | 0.101 to 1 | 0.191 | CNCCN(C)Cc1nn(C(C)C)c2ccc(OCc3ccc(C#N)cc3)cc12 [Compound 62] |  | 
20 | 0.101 to 1 | 0.0803 | CNCCN(C)Cc1n[nH]c2ccc(Oc3ccccc3OC)cc12 [Compound 24] |  | 
21 | < 0.1 | 0.0562 | CNCCN(C)Cc1n[nH]c2ccc(Oc3cccc(OC(C)C)c3)cc12 [Compound 67] |  | 
22 | 0.101 to 1 | 0.201 | CNCCN(C)Cc1n[nH]c2ccc(Oc3cccc(C)c3)cc12 [Compound 26] |  | 
23 | < 0.1 | 0.0406 | CNCCN(C)Cc1n[nH]c2ccc(N3CCCCC3)cc12 [Compound 46, N^1,N^2-dimethyl-N^1-((5-(piperidin-1-yl)-1H-indazol-3-yl)methyl)ethane-1,2-diamine] |  | 
24 | 3.01 to 10 | 0.0149 | CNCCN(C)Cc1c2cc(OCc3ccc(C#N)cc3)ccc2nn1C(C)C [Compound 34] |  | 
25 | < 0.1 | 0.0397 | CNCCN(C)Cc1n[nH]c2ccc(OCc3ccc(C(F)(F)F)cc3)cc12 [Compound 68] |  | 
26 | 3.01 to 10 | 0.045 | CNCCN(C)Cc1n[nH]c2ccc(OCC3CCOCC3)cc12 [Compound 50] |  | 
27 | 0.101 to 1 | 2.33 | CNCCN(C)Cc1n[nH]c2ccc(OCC3CCCCC3)cc12 [Compound 54] |  | 
28 | 3.01 to 10 | 0.0519 | CNCCN(C)Cc1n[nH]c2ccc(Oc3ccccc3C(F)(F)F)cc12 [Compound 49] |  | 

Row | Structure (SMILES) | IC50 [1] [µM] | IC50 [2] [µM] | IC50 [µM] | IC50 (PRMT6 biochemical evaluation (numerical), single experiment or average of multiple experiments) [µM]
29 | CCCOc1ccc2[nH]nc(CN(C)CCNC)c2c1 [Compound 65] | < 0.1 | 0.105 |  | 
30 | CNCCN(C)Cc1n[nH]c2ccc(OC(C)C)cc12 [Compound 64] | < 0.1 | 0.107 |  | 
31 | CNCCN(C)Cc1n[nH]c2ccc(Oc3cccc(OC)c3)cc12 [Compound 22] | < 0.1 | 0.0331 |  | 
32 | CNCCN(C)Cc1n[nH]c2ccc(OC3CCCCC3)cc12 [Compound 18] | < 0.1 | 0.0103 |  | 
33 | CNCCN(C)Cc1n[nH]c2ccc(Oc3ccc(C#N)cc3)cc12 [Compound 37] | 0.101 to 1 | 4.84 |  | 
34 | CNCCN(C)Cc1n[nH]c2ccc(OCc3ccc(C(C)=O)cc3)cc12 [Compound 23] | < 0.1 | 0.0966 |  | 
35 | CNCCN(C)Cc1n[nH]c2ccc(OCc3cccc(C#N)c3)cc12 [Compound 14] | < 0.1 | 0.00529 |  | 
36 | CNCCN(C)Cc1n[nH]c2ccc(C(C)C)cc12 [Compound 42, N^1-((5-isopropyl-1H-indazol-3-yl)methyl)-N^1,N^2-dimethylethane-1,2-diamine] | < 0.1 | 2.34 |  | 
37 | CNCCN(C)Cc1n[nH]c2cccc(OCCC(C)C)c12 [Compound 31] | 1.01 to 3 | 0.135 |  | 
38 | CNCCN(C)Cc1n[nH]c2ccc(OCC(C)c3ccccc3)cc12 (stereo not shown) [Compound 19] | < 0.1 | 0.0193 |  | 
39 | CNCCN(C)Cc1n[nH]c2ccc(OCCCOC)cc12 [Compound 6] | < 0.1 | 0.0393 |  | 
40 | CC(C)COc1ccc2[nH]nc(CN(C)CCN)c2c1 [Compound 2, N1-((5-iso-butoxy-1H-indazol-3-yl)methyl)-N1-methylethane-1,2-diamine] | 0.101 to 1 | 0.113 |  | 
41 | CN(CCN)Cc1n[nH]c2ccc(OCc3ccccc3)cc12 [Compound 1B] | < 0.1 | 0.00944 |  | 
42 | CNCCN(C)Cc1n[nH]c2ccc(OCc3cc[nH]n3)cc12 [Compound 17] | < 0.1 | 0.00781 |  | 
43 | CCOc1ccc2[nH]nc(CN(C)CCNC)c2c1 [Compound 63] | 0.101 to 1 | 0.164 |  | 
44 | CNCCN(C)Cc1n[nH]c2ccc(OC3CCOC3)cc12 (stereo not shown) [Compound 25, N^1,N^2-dimethyl-N^1-((5-((tetrahydrofuran-3-yl)oxy)-1H-indazol-3-yl)methyl)ethane-1,2-diamine] | < 0.1 | 0.00505 |  | 
45 | CNCCN(C)Cc1n[nH]c2ccc(Oc3ccccc3)cc12 [Compound 10, N^1,N^2-dimethyl-N^1-((5-phenoxy-1H-indazol-3-yl)methyl)ethane-1,2-diamine] | 0.101 to 1 | 0.125 |  | 
46 | CNCCN(C)Cc1nn(C)c2ccc(OCC(C)C)cc12 [Compound 3, N^1-((5-iso-butoxy-1-methyl-1H-indazol-3-yl)methyl)-N^1,N^2-dimethylethane-1,2-diamine] | 0.101 to 1 | 0.514 |  | 
47 | CNCCN(C)Cc1n[nH]c2cccc(OCc3ccccc3)c12 [Compound 21] | < 0.1 | 0.0215 |  | 
